Assay results published in patent US10406146B2, “Heterocyclic compound” (TAKEDA PHARMACEUTICAL COMPANY LIMITED, priority 2015, dated 2019).

Experiments:
Type in all cases: biochemical
HDAC9 enzyme = molecular target: T1, HDAC9 enzyme (Homo sapiens, UniProt Q9UKV0); test: HDAC9 enzyme inhibitory assay (HDAC-Glo class IIa); conditions: wells without enzyme = 100% inhibition, read-out: HDAC9 inhibitory rate (%) (1 μM)
T1 construct: transducing full length HDAC9 gene into Sf-9 insect cells; made in house; host or cells: Sf-9 insect cells
T1 sequence (Q9UKV0 whole entry, species assumed): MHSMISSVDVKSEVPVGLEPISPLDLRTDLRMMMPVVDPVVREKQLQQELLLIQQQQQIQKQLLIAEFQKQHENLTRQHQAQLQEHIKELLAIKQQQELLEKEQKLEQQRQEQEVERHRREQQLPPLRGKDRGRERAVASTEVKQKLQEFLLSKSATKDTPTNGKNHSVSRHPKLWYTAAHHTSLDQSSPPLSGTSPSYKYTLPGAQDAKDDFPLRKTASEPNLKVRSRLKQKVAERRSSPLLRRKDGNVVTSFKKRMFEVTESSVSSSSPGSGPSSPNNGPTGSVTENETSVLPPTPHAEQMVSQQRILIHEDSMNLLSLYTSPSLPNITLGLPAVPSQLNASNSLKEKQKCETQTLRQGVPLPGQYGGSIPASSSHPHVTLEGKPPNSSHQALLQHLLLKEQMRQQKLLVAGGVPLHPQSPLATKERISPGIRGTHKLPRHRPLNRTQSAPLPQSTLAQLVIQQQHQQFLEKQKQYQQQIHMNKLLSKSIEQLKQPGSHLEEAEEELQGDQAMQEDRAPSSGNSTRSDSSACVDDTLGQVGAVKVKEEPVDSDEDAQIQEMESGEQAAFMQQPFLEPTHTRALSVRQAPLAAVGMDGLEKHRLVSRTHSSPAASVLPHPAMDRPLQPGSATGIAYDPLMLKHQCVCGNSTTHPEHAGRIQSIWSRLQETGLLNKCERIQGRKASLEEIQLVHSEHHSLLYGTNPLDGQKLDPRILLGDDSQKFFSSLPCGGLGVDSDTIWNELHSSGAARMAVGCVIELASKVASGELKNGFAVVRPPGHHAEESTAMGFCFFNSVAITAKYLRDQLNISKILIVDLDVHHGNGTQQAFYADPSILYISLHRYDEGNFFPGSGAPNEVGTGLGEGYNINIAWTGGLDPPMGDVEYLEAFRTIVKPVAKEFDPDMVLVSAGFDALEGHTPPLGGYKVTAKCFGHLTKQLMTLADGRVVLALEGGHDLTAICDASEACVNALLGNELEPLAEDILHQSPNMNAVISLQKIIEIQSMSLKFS
In short: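 Luminescent HDAC-Glo class IIa readout after a 20 min room-temperature reaction; relative inhibition referenced to enzyme-free wells as 100%. Test compound first preincubated 60 min with Sf-9-expressed, Ni-NTA-purified full-length HDAC9 in pH 7.5 Tris buffer containing 135 mM NaCl, 0.6 mM glutathione and 0.01% Tween-20.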

HDAC6 enzyme = molecular target: T2, HDAC6 enzyme (Homo sapiens, UniProt Q9UBN7); test: HDAC6 enzyme inhibitory assay (HDAC-Glo I/II Assay kit); conditions: wells without enzyme = 100% inhibition, read-out: HDAC6 inhibitory rate (%) (1 μM)
T2 construct: transducing full length HDAC1 and HDAC6 genes into Sf-9 insect cells; GST; purchased SignalChem; host or cells: Sf-9 insect cells
T2 sequence (Q9UBN7 1-1215): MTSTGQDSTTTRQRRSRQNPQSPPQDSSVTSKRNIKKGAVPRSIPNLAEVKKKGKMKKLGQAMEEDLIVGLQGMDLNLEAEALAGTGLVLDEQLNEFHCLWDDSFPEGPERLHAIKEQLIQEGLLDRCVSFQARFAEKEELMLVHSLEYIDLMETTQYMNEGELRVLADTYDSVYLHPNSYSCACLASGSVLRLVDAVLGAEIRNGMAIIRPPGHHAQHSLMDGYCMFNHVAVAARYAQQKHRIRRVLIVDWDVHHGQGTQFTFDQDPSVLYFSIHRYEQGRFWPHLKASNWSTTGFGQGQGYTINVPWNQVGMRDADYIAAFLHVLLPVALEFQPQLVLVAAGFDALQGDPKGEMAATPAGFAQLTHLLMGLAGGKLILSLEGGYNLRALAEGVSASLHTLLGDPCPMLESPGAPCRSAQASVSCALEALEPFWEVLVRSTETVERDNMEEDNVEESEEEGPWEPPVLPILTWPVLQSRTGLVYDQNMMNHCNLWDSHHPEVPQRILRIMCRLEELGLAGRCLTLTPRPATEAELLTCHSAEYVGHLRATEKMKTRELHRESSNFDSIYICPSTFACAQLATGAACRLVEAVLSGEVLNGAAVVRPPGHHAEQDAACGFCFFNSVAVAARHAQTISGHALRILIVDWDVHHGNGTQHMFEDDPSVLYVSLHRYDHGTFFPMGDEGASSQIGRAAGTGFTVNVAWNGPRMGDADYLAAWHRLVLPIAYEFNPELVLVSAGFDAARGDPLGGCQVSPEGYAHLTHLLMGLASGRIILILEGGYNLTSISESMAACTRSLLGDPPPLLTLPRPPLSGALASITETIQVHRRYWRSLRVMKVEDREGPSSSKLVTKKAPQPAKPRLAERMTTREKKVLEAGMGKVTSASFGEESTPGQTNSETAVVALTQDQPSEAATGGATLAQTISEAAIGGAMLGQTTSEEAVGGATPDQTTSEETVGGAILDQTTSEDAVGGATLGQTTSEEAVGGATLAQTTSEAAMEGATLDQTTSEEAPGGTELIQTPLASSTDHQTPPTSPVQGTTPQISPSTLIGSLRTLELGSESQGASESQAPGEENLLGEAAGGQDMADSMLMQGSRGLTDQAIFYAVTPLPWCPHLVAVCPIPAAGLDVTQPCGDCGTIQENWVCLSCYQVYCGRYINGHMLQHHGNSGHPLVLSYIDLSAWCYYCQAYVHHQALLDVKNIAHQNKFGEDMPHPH
In short: (§1)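 Enzyme source: full-length HDAC1/HDAC6, Sf-9, GST-purified. Assay buffer 24 mM Tris-HCl (pH 7.5), 1 mM MgCl2, 0.35 mM KCl, 135 mM NaCl. Compound–enzyme 60 min RT, then HDAC-Glo reagent 20 min RT, luminescence; inhibition relative to no-enzyme control.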

HDAC1 enzyme = molecular target: T3, HDAC1 enzyme (Homo sapiens, UniProt Q13547); test: HDAC1 enzyme inhibitory assay (HDAC-Glo I/II Assay kit); conditions: wells without enzyme = 100% inhibition, read-out: HDAC1 inhibitory rate (%) (1 μM)
T3 construct: transducing full length HDAC1 and HDAC6 genes into Sf-9 insect cells; GST; purchased SignalChem; host or cells: Sf-9 insect cells
T3 sequence (Q13547 whole entry): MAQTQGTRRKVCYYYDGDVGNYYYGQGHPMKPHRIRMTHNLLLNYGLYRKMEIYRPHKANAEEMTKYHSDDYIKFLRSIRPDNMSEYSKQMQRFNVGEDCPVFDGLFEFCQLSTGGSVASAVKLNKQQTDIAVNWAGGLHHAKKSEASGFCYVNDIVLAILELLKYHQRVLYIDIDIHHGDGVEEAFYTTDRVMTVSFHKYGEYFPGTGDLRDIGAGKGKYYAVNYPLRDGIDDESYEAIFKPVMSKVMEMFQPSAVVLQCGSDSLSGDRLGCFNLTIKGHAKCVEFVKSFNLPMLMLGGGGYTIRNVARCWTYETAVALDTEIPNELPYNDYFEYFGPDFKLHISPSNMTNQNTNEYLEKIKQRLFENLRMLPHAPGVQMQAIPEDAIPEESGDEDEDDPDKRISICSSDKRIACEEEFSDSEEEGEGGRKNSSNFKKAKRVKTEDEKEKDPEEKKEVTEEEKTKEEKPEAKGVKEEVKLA
In short: as §1

SMILES | inhibition at 1 µM (HDAC9 enzyme) [%] | inhibition at 1 µM (HDAC6 enzyme) [%] | inhibition at 1 µM (HDAC1 enzyme) [%]
Cn1nccc1C(=O)NC[C@@H]1COCCN1C(=O)Nc1ccc(-c2noc(C(F)(F)F)n2)cc1 [Example 63, (3R)-3-((((1-methyl-1H-pyrazol-5-yl)carbonyl)amino)methyl)-N-(4-(5-(trifluoromethyl)-1,2,4-oxadiazol-3-yl)phenyl)morpholine-4-carboxamide] | 99 | 11 | 70
O=C(NCC1COCCN1C(=O)Nc1ccc(-c2noc(C(F)(F)F)n2)cn1)c1ccccc1 (stereo not drawn) [Example 64, 3-((benzoylamino)methyl)-N-(5-(5-(trifluoromethyl)-1,2,4-oxadiazol-3-yl)pyridin-2-yl)morpholine-4-carboxamide] | 94 | 15 | 85
